Source: US20160219881A1, “HERBICIDALLY ACTIVE 2-HALOGEN-4-ALKYNYL-PHENYL-PYRAZOLIDINE-DIONE OR PYRROLIDINE-DIONE DERIVATIVES” (SYNGENTA LIMITED, priority 2013, published 2016)

Assays:
Type in all cases: in vivo
[1] = tested on: Alopecurus myosuroides (ALOMY); assay: Biological Example 3 (Test 2 glasshouse assay), post-emergence herbicidal activity
Method: (§1) Seeds of a variety of monocotyledonous and dicotyledonous test plants are sown in standard soil in pots. The plants are cultivated for one day (for pre-emergence) or for about 12 days (range=10-13 days) (for post-emergence) under controlled conditions in a glasshouse (warm climate species at 24/18° C., cool climate species at 20/16° C., both at day/night; 16 hours light; 65% humidity).
(§2) An “instant formulation”, known as the “IF50”, containing 50 g/litre (i.e. 5% w/v) of the “technical” (i.e. unformulated) active ingredient is prepared by dissolving the active ingredient in a mixture of organic solvents and emulsifier, details of which are provided in the Table below. This IF50 is then mixed with a small, variable amount of acetone to aid dissolution, before addition of a 0.2% v/v aqueous solution of the adjuvant X-77 (which is a mixture of alkyl aryl polyoxyethylene glycols and free fatty acids in isopropanol, CAS Registry number 11097-66-8), as the aqueous diluent, to form an aqueous spray solution which contains a predetermined concentration of the active ingredient (which varies depending on the application rate of the active ingredient to the plants) and 0.2% v/v of the adjuvant X-77. This aqueous spray solution is then sprayed onto the plants, after one day's cultivation (for pre-emergence) or after about 12 days' cultivation (for post-emergence).
(§3) The test plants are then grown on, in a glasshouse (greenhouse) under controlled conditions (at either 24/18° C. or 20/16° C. (day/night) as mentioned above; 16 hours light; 65% humidity) and are watered twice daily. Either 15 days after application of the test compound (15 DAA) (for post-emergence), or 20 days after application of the test compound (20 DAA) (for pre-emergence), the test plants are evaluated visually, and an assessed percentage phytotoxicity score is given for each compound application on each plant species (where 100%=total damage to plant; 0%=no damage to plant).
(§4) Cool climate crop plants: Triticum aestivum (TRZAW, winter wheat), Brassica napus (BRSNN, rape, also called oilseed rape or rapeseed), Beta vulgaris (BEAVA, sugar beet). Warm climate crop plants: Glycine max (GLXMA, soybean). Cool climate (“cool season”) grassy monocotyledonous weeds: Alopecurus myosuroides (ALOMY), Avena fatua (AVEFA), Lolium perenne (LOLPE). Warm climate (“warm season”) grassy monocotyledonous weeds: Setaria faberi (SETFA), SORVU (Sorghum bicolor (L.) Moench ssp. Bicolor, or Sorghum vulgare Pers.), Digitaria sanguinalis (DIGSA), Echinochloa crus-galli (ECHCG), and Brachiaria plantaginea (BRAPL).

[2] = tested on: Beta vulgaris (BEAVA, sugar beet); assay: as above
Method: as §1, §2, §3, §4

[3] = tested on: Brassica napus (BRSNN, rape); assay: as above
Method: as §1, §2, §3, §4

[4] = tested on: Glycine max (GLXMA, soybean); assay: as above
Method: as §1, §2, §3, §4

[5] = tested on: Lolium perenne (LOLPE); assay: as above
Method: as §1, §2, §3, §4

[6] = tested on: Echinochloa crus-galli (ECHCG); assay: as above
Method: as §1, §2, §3, §4

[7] = tested on: SORVU (Sorghum bicolor (L.) Moench ssp. Bicolor, or Sorghum vulgare Pers.); assay: as above
Method: as §1, §2, §3, §4

[8] = tested on: Digitaria sanguinalis (DIGSA); assay: as above
Method: as §1, §2, §3, §4

[9] = tested on: Triticum aestivum (TRZAW, winter wheat); assay: as above
Method: as §1, §2, §3, §4

[10] = tested on: Brachiaria plantaginea (BRAPL); assay: as above
Method: as §1, §2, §3, §4

[11] = tested on: Echinochloa crus-galli (ECHCG); assay: Test 1A glasshouse assay, pre-emergence herbicidal activity; conditions: 312 h, 250 g/ha, 13 days after application, read-out: Pre-Emergence Herbicidal Activity (% Phytotoxicity) ECHCG
Method: Seeds of a variety of test species are sown in standard soil (usually sandy soil) in pots. After cultivation for one day (pre-emergence) or after 8 days cultivation (post-emergence) under controlled conditions in a glasshouse (at 24/16° C., day/night; 14 hours light; 65% humidity), the plants are sprayed with an aqueous spray solution derived from the formulation of the technical active ingredient (compound) in acetone/water (50:50) solution containing 0.5% Tween 20 (polyoxyethylene sorbitan monolaurate, CAS RN 9005-64-5). The test plants are then grown under controlled conditions in a glasshouse (at 24/16° C., day/night; 14 hours light; 65% humidity) and watered twice daily. 13 days after application of the test compounds, for pre- and post-emergence, the test is evaluated visually for percentage phytotoxicity to each plant (where 100%=total damage to plant; 0%=no damage to plant).
Alopecurus myosuroides (ALOMY), Setaria faberi (SETFA), Echinochloa crus-galli (ECHCG), Amaranthus retroflexus (AMARE), and Abutilon theophasti Medik. (ABUTH, common English name “velvetleaf”). Of these, Alopecurus myosuroides (ALOMY), Setaria faberi (SETFA), and Echinochloa crus-galli (ECHCG) are grassy monocotyledonous weeds. […]

[12] = tested on: Setaria faberi (SETFA); assay: Biological Example 3 (Test 2 glasshouse assay), post-emergence herbicidal activity
Method: as §1, §2, §3, §4

Compound	Post-Emergence Herbicidal Activity (Percentage Phytotoxicity) ALOMY ([1]; 30 g/ha)	Post-Emergence Herbicidal Activity (Percentage Phytotoxicity) ALOMY ([1]; 125 g/ha)	Post-Emergence Herbicidal Activity (Percentage Phytotoxicity) BEAVA ([2]; 30 g/ha)	Post-Emergence Herbicidal Activity (Percentage Phytotoxicity) BEAVA ([2]; 125 g/ha)	Post-Emergence Herbicidal Activity (Percentage Phytotoxicity) BRSNN ([3]; 30 g/ha)	Post-Emergence Herbicidal Activity (Percentage Phytotoxicity) BRSNN ([3]; 125 g/ha)	Post-Emergence Herbicidal Activity (Percentage Phytotoxicity) GLXMA ([4]; 30 g/ha)	Post-Emergence Herbicidal Activity (Percentage Phytotoxicity) GLXMA ([4]; 125 g/ha)	Post-Emergence Herbicidal Activity (Percentage Phytotoxicity) LOLPE ([5]; 30 g/ha)	Post-Emergence Herbicidal Activity (Percentage Phytotoxicity) LOLPE ([5]; 125 g/ha)	Post-Emergence Herbicidal Activity (Percentage Phytotoxicity) ECHCG ([6]; 30 g/ha (rate by row order))	Post-Emergence Herbicidal Activity (Percentage Phytotoxicity) ECHCG ([6]; 125 g/ha (rate by row order))	Post-Emergence Herbicidal Activity (Percentage Phytotoxicity) SORVU ([7]; 30 g/ha (rate by row order))	Post-Emergence Herbicidal Activity (Percentage Phytotoxicity) SORVU ([7]; 125 g/ha (rate by row order))	Post-Emergence Herbicidal Activity (Percentage Phytotoxicity) DIGSA ([8]; 30 g/ha (rate by row order))	Post-Emergence Herbicidal Activity (Percentage Phytotoxicity) DIGSA ([8]; 125 g/ha (rate by row order))	Post-Emergence Herbicidal Activity (Percentage Phytotoxicity) TRZAW ([9]; 30 g/ha)	Post-Emergence Herbicidal Activity (Percentage Phytotoxicity) TRZAW ([9]; 125 g/ha)	Post-Emergence Herbicidal Activity (Percentage Phytotoxicity) BRAPL ([10]; 30 g/ha (rate by row order))	Post-Emergence Herbicidal Activity (Percentage Phytotoxicity) BRAPL ([10]; 125 g/ha (rate by row order))	further results
CC#Cc1cc(C)c(C2C(=O)N(C)N(C)C2=O)c(C)c1 [Compound A1]	10%	70%	0%	10%	70%	70%	30%	70%	30%	80%	70%	90%	70%	80%	80%	90%	30%	80%	70%	100%	inhibition at 250 g/ha [11]: 30%
CC#Cc1cc(C)c(C2C(=O)N3CCCCCN3C2=O)c(C)c1 [Compound A23, 2-(2,6-dimethyl-4-prop-1-ynyl-phenyl)-6,7,8,9-tetrahydro-5H-pyrazolo[1,2-a]diazepine-1,3-dione]	0%	50%	10%	40%	30%	50%	0%	70%	0%	40%	0%	20%	50%	70%	30%	70%	0%	50%	0%	10%	Post-Emergence Herbicidal Activity (Percentage Phytotoxicity) SETFA ([12]; 30 g/ha (rate by row order)): 0%; Post-Emergence Herbicidal Activity (Percentage Phytotoxicity) SETFA ([12]; 125 g/ha (rate by row order)): 70%; inhibition at 250 g/ha [11]: 90%
